Patent publication US20020150621A1, “Lipid-protein-sugar particles for drug delivery” (priority 2000, published 2002)
Where two headings read alike, the source gives them in different places.

Key:
[1] = Systemic distribution/toxicity after sciatic injection (contralateral thermal latency, deaths); type: in vivo, rat; conditions: 1.5 ml of 0.5% bupivacaine (7.5 mg), n=6
Description: (§1) Prior to nerve block injections, rats were anesthetized briefly (<2 minutes) with halothane. […] A 20G needle was introduced postero-medial to the greater trochanter, pointing in an anteromedial direction (Thalhammer et al. “Neurologic evaluation of the rat during sciatic nerve block with lidocaine” Anesthesiology 82:1013-1025, 1995; incorporated herein by reference). Once bone was contacted, the needle was withdrawn 1 mm and the particle-containing solution was injected. The left leg was always used for blocks; the right served as control.
Nociceptive block was assessed by a modified hotplate test (Masters et al. “Prolonged regional nerve blockade by controlled release of local anesthetic from a biodegradable polymer matrix” Anesthesiology 79:1-7, 1993; incorporated herein by reference). Hind paws were exposed in sequence (left then right) to a hot plate at 56° C. (Model 39D Hot Plate Analgesia Meter, IITC Inc., Woodland Hills, Calif.), and the time (latency) until paw withdrawal was measured by a stopwatch. Thermal latency is a measure of the intensity of analgesia. If the paw remained in contact for 12 seconds, it was removed by the experimenter to avoid injury to the animal or the development of hyperalgesia. This test was repeated three times for each rat at every time-point.

[2] = adult rats; Kohane et al. 1998; cited from earlier work
[3] = Median lethal dose of bupivacaine (literature); type: in vivo; conditions: in a 350 g rat
Description: Encapsulation improved the safety and efficacy of bupivacaine. […] For this experiment larger rats (approx. 410 g) were used than those used in the remainder of the study, in order to avoid animal death (the median lethal dose of bupivacaine in adult rats is 30±5 mg/kg (Kohane et al. “Sciatic nerve blockade in infant, adolescent, and adult rats: a comparison of ropivacaine and bupivacaine” Anesthesiology 89:1199-1208, 1998; incorporated herein by reference), or 10.5 mg in a 350 g rat). […] It was not possible to directly compare the efficacy of bupivacaine solution and 50% bupivacaine microspheres, since the dose of bupivacaine contained in 75 mg of those microspheres ([…]) is approximately three times the median lethal dose of the unencapsulated drug (Kohane et al. “Sciatic nerve blockade in infant, adolescent, and adult rats: a comparison of ropivacaine and bupivacaine” Anesthesiology 89:1199-1208, 1998). Nevertheless, it is obvious that the microspheres increased the safety of bupivacaine.

sciatic nerve = experiment: Sciatic nerve block, thermal nociception (modified hotplate test); type: in vivo, rat; conditions: 1.5 ml of 0.5% bupivacaine (7.5 mg), n=6, rats approx. 410 g
Description: as §1
The effectiveness of block was measured at various time points, applying the methods of Thalhammer et al. (Thalhammer et al. “Neurologic evaluation of the rat during sciatic nerve block with lidocaine” Anesthesiology 82:1013-1025, 1995; […]; incorporated herein by reference).
Nociceptive block was assessed by a modified hotplate test (Masters et al. “Prolonged regional nerve blockade by controlled release of local anesthetic from a biodegradable polymer matrix” Anesthesiology 79:1-7, 1993; incorporated herein by reference). Hind paws were exposed in sequence (left then right) to a hot plate at 56° C. (Model 39D Hot Plate Analgesia Meter, IITC Inc., Woodland Hills, Calif.), and the time (latency) until paw withdrawal was measured by a stopwatch. Thermal latency is a measure of the intensity of analgesia. […]

SMILES: CCCCN1CCCCC1C(=O)Nc1c(C)cccc1C (stereo not shown) [bupivacaine]
- rats with severe signs of systemic toxicity (thermal latency=12 seconds in the uninjected leg) [1]: one of those rats
- median lethal dose [2]: 30 ± 5 mg/kg
- median lethal dose [3]: 10.5 mg
- duration of block (sciatic nerve): 166 ± 55 min
